Experimental data reported in PMC6680932, “Structure–Antioxidant–Antiproliferative Activity Relationships of Natural C7 and C7–C8 Hydroxylated Flavones and Flavanones” (Antioxidants, 2019).

Assays:
HLMEC cultures = test: Stability of flavonoids in the cell cultures, HPLC; assay type: in vitro ADME, human; conditions: 100 μg/mL, 3 h of incubation
Description: (§1) Flavonoids dissolved (as described in Section 2.4) were added to the HLMEC and MCF7 line cultures, and the final concentration was 100 μg/mL. The cultures were incubated in 96-well plates for 3 h and transferred to microtubes containing 400 µL of cold methanol (−20 °C) and kept at −20 °C for 1 h. After centrifugation at 12,000× g for 10 min, samples were analyzed by HPLC. To determine the stability of flavonoids in HLMEC and MCF7 culture media (not containing cells) under analogous conditions, control experiments were also carried out.

MCF7 cultures = test: Stability of flavonoids in the cell cultures, HPLC; assay type: in vitro ADME, human; conditions: 100 μg/mL, 3 h of incubation
Description: as §1

[1] = Stability of flavonoids in culture media without cells (control), HPLC; assay type: physicochemical; conditions: HLMEC and MCF7 culture media not containing cells, 3 h
Description: as §1

[2] = DPPH free radical scavenging activity assay; conditions: 10 min, 517 nm; mean ± SD
Description: (§2) The antioxidant capacity of flavonoids was measured in three separate tests: ABTS, DPPH, and ferric ion reducing antioxidant power (FRAP) assays (ABTS, DPPH, and FRAP reagents from Sigma-Aldrich). All tested compounds were dissolved in DMSO. All determinations were performed in triplicate. Standard curves were prepared for all assays using different concentrations of Trolox (6-hydroxy-2,5,7,8-tetramethylchroman-2-carboxylic acid) (Sigma-Aldrich). Trolox is a water-soluble analogue of vitamin E with high antioxidant activity, commonly used as a control and a reference in studies of antioxidant activity. The results were expressed as the equivalent of μmol Trolox per μmol of the test compound. The absorbance was measured using a UV-2401 PC spectrophotometer (Shimadzu, Kyoto, Japan). Concentrations of the tested samples were in the range from 50 µg/mL to 10 mg/mL.
The DPPH (2,2-diphenyl-1-picrylhydrazyl) radical scavenging activity of samples was determined according to the method described by Yen and Chen with some modifications. Samples (0.1 mL) of known concentration were mixed in polystyrene cuvettes with 2 mL of 0.04 mM DPPH in ethanol and 0.4 mL of ethanol. The absorbance was measured after 10 min at λ = 517 nm. The DPPH reagent was freshly prepared before each experiment.

[3] = ABTS radical cation decolorization assay; conditions: 6 min incubation, 734 nm; mean ± SD
Description: as §2
The radical cation scavenging capacity of the tested compounds was examined against ABTS^+ (2,2’-azino-bis(3-ethylbenzo-thiazoline-6-sulfonic acid) according to the procedure described by Re et al. with some modifications. The test sample (30 μL) of known concentration was mixed in a polystyrene cuvette with 3 mL of ABTS solution with a measured absorption of 0.700 at a wavelength of λ = 734 nm. After 6 min of incubation, the absorption of samples was recorded. The ABTS reagent was freshly prepared before each experiment.

DU 145 (prostate cancer) = test: Antiproliferative activity in vitro, SRB assay; assay type: cell-based, human; conditions: Homo sapiens, DU-145; 72 h exposure, SRB; read-out: IC50 ± SD DU 145

| Structure (SMILES) | compound remaining after incubation in HLMEC cultures (HLMEC cultures) | compound remaining after incubation in MCF7 cultures (MCF7 cultures) | compound remaining in culture media without cells [1] | TEAC DPPH [2] | TEAC ABTS [3] | IC50 (DU 145 (prostate cancer)) |
| --- | --- | --- | --- | --- | --- | --- |
| O=c1cc(-c2ccc(O)cc2)oc2cc(O)cc(O)c12 [Compound 2, apigenin] | over 98% | over 98% | over 98% | 0.005 ± 0.002 µmol trolox per µmol of tested | 0.250 ± 0.014 µmol trolox per µmol of tested | 28.9 ± 8.4 µM |
| O=C1C[C@@H](c2ccc(O)cc2)Oc2cc(O)cc(O)c21 [Compound 6, naringenin] | over 98% | over 98% | over 98% | 0.017 ± 0.002 µmol trolox per µmol of tested | 0.347 ± 0.020 µmol trolox per µmol of tested | 242 ± 15.6 µM |
| O=c1cc(-c2ccc(O)cc2)oc2c(O)c(O)cc(O)c12 [Compound 10, 8-hydroxyapigenin] | – | – | – | 5.560 ± 0.121 µmol trolox per µmol of tested | 10.184 ± 1.768 µmol trolox per µmol of tested | – |
